From EPA's ToxRefDB 2

Experiments:
[1] = test system: rat; settings: Subchronic oral toxicity in rodents, sprague dawley, Gavage/Intubation, dose end: 94 day
[2] = test system: rat; settings: Prenatal developmental toxicity study, sprague dawley, Oral, Gavage/Intubation, dose end: 19 GD
[3] = test system: dog; settings: Combined chronic toxicity/carcinogenicity, beagle, Oral, Feed, dose end: 104 week
[4] = test system: rat; settings: Multigenerational reproductive toxicity study, sprague dawley, Oral, Feed, dose end: 2 generation
[5] = test system: dog; settings: Chronic toxicity; beagle; Oral; Feed; dose end: 52 week; group: systemic; systemic / in life observation / body weight / body weight + systemic / organ weight / spleen / absolute + systemic / organ weight / spleen…
[6] = test system: dog; settings: Chronic toxicity, beagle, Oral, Feed, dose end: 104 week
[7] = test system: rat; settings: Combined chronic toxicity/carcinogenicity, sprague dawley, Oral, Feed, dose end: 104 week
[8] = test system: rabbit; settings: Prenatal developmental toxicity study; new zealand white; Oral; Gavage/Intubation; dose end: 19 GD; group: maternal; reproductive / reproductive performance / postimplantation loss / postimplantation loss + reproductive / reproductive performance / …
[9] = test system: mouse; settings: Carcinogenicity, swiss albino, Oral, Feed, dose end: 78 week
[10] = test system: rat; settings: Subchronic oral toxicity in rodents, other, Feed, dose end: 91 day
[11] = test system: rat; settings: Combined chronic toxicity/carcinogenicity; sprague dawley; Oral; Feed; dose end: 104 week; group: systemic; systemic / clinical chemistry / alanine aminotransferase (alt/sgpt) / alanine aminotransferase (alt/sgpt) + systemic / clinical chemistry / …
[12] = test system: mouse; settings: Carcinogenicity, other, Oral, Feed, dose end: 18 month, group: systemic
[13] = test system: dog; settings: Subchronic oral toxicity in nonrodent, beagle, Capsule, dose end: 26 week, group: systemic, systemic / in life observation / body weight / body weight gain
[14] = test system: dog; settings: Chronic toxicity, beagle, Oral, Capsule, dose end: 52 week, group: systemic
[15] = test system: rabbit; settings: Prenatal developmental toxicity study, other, Oral, Gavage/Intubation, dose end: 19 GD
[16] = group: cholinesterase, cholinesterase / cholinesterase / cholinesterase / plasma cholinesterase (che)
[17] = group: cholinesterase, cholinesterase / cholinesterase / cholinesterase / plasma cholinesterase (che) + cholinesterase / cholinesterase / cholinesterase / brain …
[18] = group: systemic, systemic / organ weight / liver / relative to body weight + systemic / organ weight / ovary / absolute + systemic / organ weight / ovary / …
[19] = group: developmental, systemic / in life observation / body weight / fetal weight
[20] = group: maternal, systemic / in life observation / mortality / mortality + systemic / pathology microscopic / liver / hepatitis + systemic / pathology …
[21] = group: systemic, systemic / pathology microscopic / intestine small / hypertrophy + systemic / in life observation / clinical signs / soft stools + systemic…
[22] = group: offspring, systemic / in life observation / body weight / offspring (pup) weight
[23] = group: offspring, systemic / in life observation / body weight / offspring (pup) weight + developmental / offspring survival late / viability index / …
[24] = group: parental, systemic / in life observation / body weight / body weight + systemic / in life observation / food consumption / food consumption + systemic…
[25] = group: systemic, systemic / pathology microscopic / intestine small / hypertrophy + systemic / pathology microscopic / stomach / hypertrophy + systemic / …
[26] = group: cholinesterase, cholinesterase / cholinesterase / cholinesterase / erythrocyte cholinesterase (che) + cholinesterase / cholinesterase / cholinesterase / …
[27] = group: systemic, systemic / clinical chemistry / alkaline phosphatase (alp/alk) / alkaline phosphatase (alp/alk) + systemic / in life observation / body …
[28] = group: systemic, systemic / in life observation / body weight / body weight + systemic / in life observation / body weight / body weight gain + systemic / in…
[29] = group: cholinesterase, cholinesterase / cholinesterase / cholinesterase / cholinesterase (che)
[30] = group: systemic, systemic / clinical chemistry / alkaline phosphatase (alp/alk) / alkaline phosphatase (alp/alk) + systemic / in life observation / clinical …
[31] = systemic / pathology microscopic / lung / adenoma + systemic / pathology microscopic / lung / carcinoma + systemic / in life observation / …
[32] = systemic / in life observation / body weight / body weight gain + systemic / in life observation / food consumption / food consumption + …
[33] = group: developmental, developmental / developmental malformation / bone / hypoplasia + developmental / developmental malformation / trunk / spina bifida
[34] = group: maternal, systemic / in life observation / body weight / body weight gain

O=P(O)(O)CCCl [Ethephon]
LEL [1, 16]: 50 mg/kg/day
NEL [1, 16]: < 50 mg/kg/day
LOAEL [1, 17]: > 200 mg/kg/day
NOAEL [1, 17]: ≥ 200 mg/kg/day
LEL [1, 18]: 200 mg/kg/day
LOAEL [1, 18]: 200 mg/kg/day
NEL [1, 18]: 100 mg/kg/day
NOAEL [1, 18]: 100 mg/kg/day
LEL [2, 19]: 1800 mg/kg/day
LOAEL [2, 19]: 1800 mg/kg/day
NEL [2, 19]: 600 mg/kg/day
NOAEL [2, 19]: 600 mg/kg/day
LEL [2, 20]: 1800 mg/kg/day
LOAEL [2, 20]: 1800 mg/kg/day
NEL [2, 20]: 600 mg/kg/day
NOAEL [2, 20]: 600 mg/kg/day
LEL [3, 16]: 0.75 mg/kg/day
LOAEL [3, 16]: 0.75 mg/kg/day
NEL [3, 16]: < 0.75 mg/kg/day
NOAEL [3, 16]: < 0.75 mg/kg/day
LEL [3, 21]: 7.5 mg/kg/day
LOAEL [3, 21]: > 37.5 mg/kg/day
NEL [3, 21]: 0.75 mg/kg/day
NOAEL [3, 21]: ≥ 37.5 mg/kg/day
LEL [4, 22]: 198 mg/kg/day
LOAEL [4, 22]: 198 mg/kg/day
NEL [4, 23]: 19.8 mg/kg/day
NOAEL [4, 23]: 19.8 mg/kg/day
LEL [4, 24]: 245 mg/kg/day
LOAEL [4, 24]: 245 mg/kg/day
NEL [4, 24]: 23.7 mg/kg/day
NOAEL [4, 24]: 23.7 mg/kg/day
LEL [5]: 52.1 mg/kg/day
LOAEL [5]: 52.1 mg/kg/day
NEL [5]: 28.5 mg/kg/day
NOAEL [5]: 28.5 mg/kg/day
LOAEL ([6]; group: cholinesterase, cholinesterase / cholinesterase / cholinesterase / erythrocyte cholinesterase (che)): 7.5 mg/kg/day
LEL [6, 16]: 0.75 mg/kg/day
NEL [6, 16]: < 0.75 mg/kg/day
NOAEL ([6]; group: cholinesterase, cholinesterase / cholinesterase / cholinesterase / plasma cholinesterase (che) + cholinesterase / cholinesterase / cholinesterase / …): 0.75 mg/kg/day
LEL ([6]; group: systemic, systemic / pathology microscopic / intestine small / hypertrophy + systemic / pathology microscopic / stomach / hypertrophy): 7.5 mg/kg/day
LOAEL [6, 25]: > 75 mg/kg/day
NEL [6, 25]: 0.75 mg/kg/day
NOAEL [6, 25]: ≥ 75 mg/kg/day
LEL [7, 26]: 150 mg/kg/day
LOAEL [7, 26]: 150 mg/kg/day
NEL [7, 26]: 15 mg/kg/day
NOAEL [7, 26]: 15 mg/kg/day
LEL [7, 27]: 15 mg/kg/day
LOAEL [7, 27]: > 150 mg/kg/day
NEL [7, 27]: 1.5 mg/kg/day
NOAEL [7, 27]: ≥ 150 mg/kg/day
LEL [8]: 250 mg/kg/day
LOAEL [8]: 250 mg/kg/day
NEL [8]: 125 mg/kg/day
NOAEL [8]: 125 mg/kg/day
LEL [9, 26]: 156 mg/kg/day
LOAEL [9, 26]: > 7750 mg/kg/day
NEL [9, 26]: 15.5 mg/kg/day
NOAEL [9, 26]: ≥ 7750 mg/kg/day
LOAEL ([9]; group: systemic, systemic / in life observation / body weight / body weight + systemic / in life observation / body weight / body weight gain): 1630 mg/kg/day
NEL [9, 28]: 156 mg/kg/day
NOAEL [9, 28]: 156 mg/kg/day
LEL ([9]; group: systemic, systemic / in life observation / body weight / body weight + systemic / in life observation / body weight / body weight gain + systemic / …): 1630 mg/kg/day

CCOC(=O)NCCOc1ccc(Oc2ccccc2)cc1 [Fenoxycarb]
LEL [10, 29]: 250 mg/kg/day
LOAEL [10, 29]: > 800 mg/kg/day
NEL [10, 29]: 80 mg/kg/day
NOAEL [10, 29]: ≥ 800 mg/kg/day
LEL [10, 30]: 80 mg/kg/day
LOAEL [10, 30]: 80 mg/kg/day
NEL [10, 30]: < 80 mg/kg/day
NOAEL [10, 30]: < 80 mg/kg/day
LEL [11]: 24.7 mg/kg/day
LOAEL [11]: 24.7 mg/kg/day
NEL [11]: 8.1 mg/kg/day
NOAEL [11]: 8.1 mg/kg/day
LEL ([12]; systemic / pathology gross / spleen / enlarged): 5.75 mg/kg/day
NEL ([12]; systemic / pathology gross / spleen / enlarged + systemic / pathology microscopic / liver / carcinoma + systemic / pathology microscopic / …): 1.1 mg/kg/day
LOAEL [12, 31]: 51.5 mg/kg/day
NOAEL [12, 31]: 5.33 mg/kg/day
LEL [13]: 500 mg/kg/day
LOAEL [13]: 500 mg/kg/day
NEL [13]: 150 mg/kg/day
NOAEL [13]: 150 mg/kg/day
LEL ([14]; systemic / clinical chemistry / phosphorus / phosphorus): 80 mg/kg/day
NOAEL ([14]; systemic / in life observation / body weight / body weight gain + systemic / clinical chemistry / phosphorus / phosphorus + systemic / organ…): 80 mg/kg/day
LOAEL [14, 32]: 260 mg/kg/day
NEL [14, 32]: 25 mg/kg/day
LEL [15, 33]: 300 mg/kg/day
LOAEL [15, 33]: 300 mg/kg/day
NEL [15, 33]: 200 mg/kg/day
NOAEL [15, 33]: 200 mg/kg/day
LEL [15, 34]: 200 mg/kg/day
LOAEL [15, 34]: 200 mg/kg/day
NEL [15, 34]: 100 mg/kg/day
NOAEL [15, 34]: 100 mg/kg/day
